Laboratory results published in patent publication US9526243B2, “Pollination success and seed set in corn hybrid seed production” (priority 2012, dated 2016).

Tests used:
Format in all cases: in vivo, corn (maize, Zea mays)
[1] = system: Inbred B male plants (corn); experiment: GA3 spray to increase male inbred height, Inbred B (Brazil); conditions: for plant height increase: one application before flowering, 365 g GA3 (10% active ingredient) per hectare
Method: (§1) GA3 spray to increase male inbred height was also tested with 2 more inbreds, Inbred B and Inbred C, in Brazil.
Inbred B was sown in two sequential plantings, separated by 80 to 100 heat units. The first planting is referred to as the primary male; the second planting is referred to as the secondary male. The two male plantings were separated in the field by 40 cm; minimum distance from female rows was 70 cm.
(§2) Data were collected after the following treatments: (a) control, (b) GA3: one application, before flowering, when the tassel is enveloped in 2 leaves; (b) GA3: 2 sequential applications, one at V6 stage and 1 application before flowering. The concentration of GA3 used was 365 g of GA3 (10% active ingredient) per hectare (which is approximately equivalent to 40 g of GA3 at 90% active ingredient), and the spray volume was 130 liters/hectare.
(§3) The plot had 5.20 meter length of each row and 60 cm between plots. Ten male plants in sequence for each male row (primary male and secondary male separate) were measured and the average calculation was obtained and replicated 5 times in different plots. Measurements taken were plant height; length of primary rachis of the tassel; number of secondary tassel branches; and visual pollen score where 1=no pollen (sterile), 5=average amount of pollen, and 9=large amount of pollen.

[2] = system: male parent plant of Hybrid A (corn)
From the text: Hybrid A is a three-way corn hybrid which performs well in rain-fed areas in India. The female parent of this hybrid is a single cross and male parent is an inbred. […] The ear height in female is 94 cm and male plant height (including tassel length) is 190 cm. The ratio of male parent plant height to female parent ear height is 2.02. This is not favorable for pollen dispersal and cross fertilization. A taller male gives a very clear advantage in easy spread of pollen. Further, a height disadvantage is amplified where the female is a single cross and male is inbred, as the robust female parent suppresses male parent growth. […] With less seed yield due to low seed set, seed production may be uneconomical in Hybrid A. Controlled use of Gibberellic Acid as foliar spray for male parent helped increase the plant height and thereby facilitated easier dispersal of pollen for better pollination success.
When GA3 was sprayed on male parent at a given dosage, the last few internodes were elongated and the plant height was increased by 33 cm. The ratio of male parent plant height to female parent ear height increased from 2.02 in control (no GA3 spray) to 2.40 after spray. This spray was done when a minimum of 80% of the plants had the tassel wrapped in two leaves.
A field trial was conducted to study the impact of GA3 on male parent plant height and also seed yield in hybrid seed production. GA3 dose of 10 g (dissolved in 100 ml alcohol) was sprayed in one acre of male plants (25% of area in 3:1 row ratio) when male tassel is wrapped up in two leaves.

[3] = system: Inbred C male plants (corn); experiment: GA3 spray to increase male inbred height, Inbred C (Brazil)
Method: as §1, §2, §3

[4] = Inbred B, one GA application vs control
[5] = Inbred B, two sequential GA treatments (V6 and before flowering), relative to control, primary and secondary males

SMILES: C=C1C[C@]23C[C@@]1(O)CC[C@H]2[C@@]12C=C[C@H](O)[C@@](C)(C(=O)O1)[C@H]2[C@@H]3C(=O)O [GA3, gibberellin A3]
- plant height increase ([1]; Inbred B primary males): about 10 cm
- plant height increase ([1]; Inbred B secondary males): ~15 cm
- height of male parent plants ([1]; Inbred B, GA3 concentration increased to 16 g/1000 m^2 of male plants): increase further
- number of secondary branches on the rachis [1, 4]: did not change significantly
- primary rachis length [1, 4]: did not change significantly
- pollen score ([1]; Inbred B, one GA application vs control, visual score 1-9): did not change significantly
- pollen score [1, 5]: reduced
- size of the main rachis [1, 5]: reduced
- yield improvement ([2]; Hybrid A experimental plot, GA3 treatment vs control): 32%
- hybrid seed yield with GA3 treatment ([2]; Hybrid A experimental plot, control 607 Kg/Acre): 803 Kg/Acre
- negative or deleterious effects on other plant processes ([2]; Hybrid A male parent after GA3 spray): without any negative or deleterious effects
- increase in male parent plant height ([2]; Hybrid A male parent, GA3 10 g sprayed when tassel wrapped in two leaves, vs control (no GA3 spray)): 33 cm
- male parent plant height increase ([2]; Hybrid A male parent, after spraying GA3, from 190 cm): 17%
- male parent plant height after spraying GA3 ([2]; Hybrid A male parent, control 190 cm): 223 cm
- ratio of male parent plant height to female parent ear height after spray ([2]; Hybrid A, after GA3 spray, control 2.02): 2.40
- effect of a second application compared with a single application ([3]; 2 sequential applications (V6 and before flowering)): not more favorable than a single application
- number of secondary branches on the rachis ([3]; one GA application vs control): did not change significantly
- primary rachis length ([3]; one GA application vs control): did not change significantly
- pollen score ([3]; one GA application vs control, visual score 1-9): did not change significantly
- plant height increase ([3]; one application of GA3): ~12 cm
